Measured values: US20210369583A1, “COMPOSITIONS FOR PROVIDING SKIN CARE BENEFITS AND METHODS OF USE” (Danisco US Inc., priority 2018, published 2021)

Assays:
Format in all cases: cell-based
MT-1H (Metallothionein) = assay: Immunostaining of MT-1H in human skin explants, image analysis; details: after pollutants exposure
Description: 59 human skin explants of an average diameter of 14 mm (±1 mm) were prepared on an abdoplasty coming from a person. The explants were kept in survival in BEM culture medium at 37° C. in a humid, 5%-CO2 atmosphere.
The tested products were topically applied on the basis of 2 μl per cm^2 and spread using a small spatula twice a day (morning and evening) on day 0, 1, 2, 3 and 4.
On D4, the explants of the batches ML and PML were placed on the 3D grid with 900 μl of HBSS and placed into the PolluBox® system.
3 mL of the solution <<ML>> (supplemented with 150 μl/ml of NaCl 0.9%) were exposed by vaporization for 1 hour and half, as shown in the figure below.
Metallothionein (MT) is a unique heat-stable protein with a metal binding domain consisting of 20 cysteine residues. […] The immunostaining was performed using an automated slide processing system (Autostainer, Dako) and assessed by microscopical observation. […]
The images analyses were performed on all the images (9 to 12 images) of each batch using the CellD storing software (Olympus Microscopy, Matrix Optics (M)SdnBhd, Taman Mayhang, Maylasia). For each batch of explants, the percentage of the region of interest covered by the staining (stained surface percentage) was determined by image analysis. […]
Analyzed batches: T, P2, ML, P2ML (4 batches, 3 explants/batch, so 12 explants) at day 5 referred to as: TJ5, P2J5, MLJ5, P2MLJ5.

[1] = tested on: human living skin explant; assay: TUNEL assay (UV-induced DNA damage) on human living skin explants; details: UV irradiated
Description: (§1) human skin explants of an average diameter of 12 mm (±1 mm) were prepared on an abdoplasty coming from a person). The explants were kept in survival in BEM culture medium at 37° C. in a humid, 5%-CO2 atmosphere.
(§2) On day 0 (D0), day 1, day 2 and day 3 (3 hours before irradiation), the tested products were applied topically on surface of skin explants at the rate of 2 mg/cm^2, twice a day for D1 and D2 and once on DO and D3. […] The medium was half renewed (1 ml per well) on day 2.
(§3) On D3, the culture media of all the batches was replaced by HBSS solution (Hank's Balanced Saline Solution; 1 ml per explant). The batches “UV” were irradiated by UVA+ UVB using a UV simulator Vibert Lourmat RMX 3W with a dose of 18 J/cm2 of UVA (4 MED, minimal erythemal dose) and 0.3 J/cm2 of UVB (2 MED). The unirradiated batches were kept in HBSS in the dark. At the end of the irradiation the explants were put back in 2 mL of BEM medium.
(§4) After fixation for 24 hours in buffered formalin, the samples were dehydrated and impregnated in paraffin using a Leica PEARL dehydration automat. The samples were embedded using a Leica EG 1160 embedding station. 5-μm-thick sections were made using a Leica RM 2125 Minot-type microtome, and the sections were mounted on Superfrost® histological glass slides. The frozen samples were cut into 7-μm-thick sections using a Leica CM 3050 cryostat. Sections were then mounted on Superfrost® plus silanized glass slides. The microscopical observations were realized using a Leica DMLB or Olympus BX43 microscope. Pictures were digitized with a numeric DP72 Olympus camera with CellD storing software.
DNA oxidization is a type of damage that can be promoted by reactive oxygen species (ROS), generated by UV exposure. […] The staining was assessed by microscopical observation. Batches analyzed were T, TUV, P1UV, P2UV, P3UV at day 4 also referred to as TJ4, TUVJ4, P1UVJ4, P2UVJ4, P3UVJ4 (T=Control batch non treated non irradiated; TJ4=T at Day 4 (D4); TUV: control batch non treated UV irradiated; TUVJ4=[…] at Day 4; P1J4: product A 4% non irradiated at D4; P2J4: product A 2% non irradiated at D4; P3J4: product A 1% non irradiated at D4; P1UV: product A 4% UV irradiated; P1UVJ4: product A 4% UV irradiated at D4 P2UV: product A 2% UV irradiated; P2UVJ4: product A 2% UV irradiated at D4; P3UV: product A 1% UV irradiated; P3UVJ4: product A 1% UV irradiated at D4

[2] = tested on: human living skin explant; assay: Cell viability of human living skin explants (UV study); details: day 4
Description: as §1, §2, §3, §4

O=C(O)[C@@H]1CCCN1 [Combination P4, L-Proline]
effect on pollutant-induced MT-1H (MT-1H (Metallothionein)): seems to strongly reduce the effect of the pollutants | activity against UV-induced DNA damage [1]: strong inhibition of the increase of DNA damage | Cell Viability, variation vs TUVJ4 ([2]; UV irradiated): ↔ (indicates no variation) | Cell Viability, variation vs TJ4 ([2]; non irradiated): ↔ (indicates no variation)
